Reference: ChEMBL document CHEMBL5303304, “EUbOPEN Chemogenomics Library - IncuCyte” (2023)
Values joined by “and” are separate entries in the source; they are usually repeats but may differ in a detail not shown here. Equal values may be shown once.

Tests used:
Format in all cases: toxicity, cell-based
Fibroblast = assay: Incucyte cell viability with human fibroblast; conditions: 10 µM, compound concentration 10 uM
U2OS = assay: Incucyte cell viability with U2OS; conditions: human, 10 µM, compound concentration 10 uM
HEK-293T = assay: Incucyte cell viability with HEK293T; conditions: human, 10 µM, compound concentration 10 uM
Note: unitless GR value; below 1 slowed growth and below 0 cell loss.

SMILES	Growth Rate (Fibroblast; 0 h, replicate number 2)	Growth Rate (Fibroblast; 6 h, replicate number 2)	Growth Rate (Fibroblast; 12 h, replicate number 2)	Growth Rate (U2OS; 6 h, replicate number 1)	Growth Rate (U2OS; 12 h, replicate number 1)	Growth Rate (U2OS; 12 h, replicate number 2)	Growth Rate (U2OS; 18 h, replicate number 1)	Growth Rate (U2OS; 18 h, replicate number 2)	Growth Rate (HEK-293T; 0 h, replicate number 2)	Growth Rate (HEK-293T; 6 h, replicate number 2)	Growth Rate (HEK-293T; 12 h, replicate number 2)	Growth Rate (Fibroblast; 12 h, replicate number 1)	Growth Rate (Fibroblast; 18 h, replicate number 1)	Growth Rate (Fibroblast; 24 h, replicate number 1)	Growth Rate (Fibroblast; 24 h, replicate number 2)	Growth Rate (HEK-293T; 12 h, replicate number 1)	Growth Rate (HEK-293T; 18 h, replicate number 1)	Growth Rate (HEK-293T; 18 h, replicate number 2)	Growth Rate (HEK-293T; 24 h, replicate number 1)	Growth Rate (HEK-293T; 24 h, replicate number 2)	other results
CCNC(=O)c1ccc2c(c1)NC(=O)/C2=C(\Nc1ccc(CN(C)C)cc1)c1ccccc1	0.87	0.09	0.8	0.67 and 0.82	0.63 and 0.95	0.85	0.75 and 0.9	0.8	-1	0.16	0.83	–	–	–	–	–	–	–	–	–	Growth Rate (U2OS; 0 h, replicate number 2): 0.96; Growth Rate (U2OS; 6 h, replicate number 2): 1; Growth Rate (U2OS; 24 h, replicate number 1): 0.84 and 0.87; Growth Rate (U2OS; 24 h, replicate number 2): 0.83
CN1CCCN(C(=O)c2cccc(-c3ccc(/C=C4/C(=O)Nc5ccc(Cl)cc54)o3)c2)CC1	–	-0.94	-0.82	-0.67	-0.7	-0.54	-0.53	-0.44	-1	-0.67	-0.63	-0.83	-0.74	-0.67	-0.63	-0.6	-0.51	-0.49	-0.45	-0.47	Growth Rate (Fibroblast; 6 h, replicate number 1): -0.99; Growth Rate (Fibroblast; 18 h, replicate number 2): -0.72; Growth Rate (U2OS; 0 h, replicate number 2): -0.78; Growth Rate (U2OS; 6 h, replicate number 2): -0.6; Growth Rate (U2OS; 24 h, replicate number 1): -0.48; Growth Rate (U2OS; 24 h, replicate number 2): -0.42; Growth Rate (HEK-293T; 6 h, replicate number 1): -0.69
N[C@@H]1CCCN(c2c(/C=C3\SC(=O)NC3=O)cccc2-c2ccccc2)C1	–	0.19	0.34	–	0.97	–	–	–	-0.99	0.84	0.79	0.71	0.83	1	0.53	–	0.8	0.84	0.92	0.97	Growth Rate (Fibroblast; 18 h, replicate number 2): 0.55; Growth Rate (U2OS; 0 h, replicate number 1): -0.41
Cn1cc(NC(=O)c2ccc3nc4n(c3c2)CCCNC4=O)nc1C(=O)NC1CCCC1	0.62	0.57	0.76	–	0.82	0.97	0.95	0.99	0.71	0.99	0.88	0.67	0.91	0.79	0.92	0.69	0.64	0.85	0.81	0.9	Growth Rate (Fibroblast; 0 h, replicate number 1): 0.88; Growth Rate (Fibroblast; 18 h, replicate number 2): 0.78; Growth Rate (U2OS; 0 h, replicate number 1): 0.36; Growth Rate (U2OS; 24 h, replicate number 1): 0.91
Nc1ncnc2c1ccn2[C@@H]1O[C@H]([C@@H](O)c2ccccc2)[C@@H](O)[C@H]1O	–	0.31	0.57	–	–	1	0.86	0.91	-0.97	–	–	0.69	0.97	0.81	–	–	–	–	–	–	Growth Rate (Fibroblast; 6 h, replicate number 1): 0.32; Growth Rate (U2OS; 24 h, replicate number 1): 0.8; Growth Rate (U2OS; 24 h, replicate number 2): 0.95; Growth Rate (HEK-293T; 6 h, replicate number 1): 0.8
CN(C)[C@H]1CCc2nc(NC(=O)c3cccc(Cn4cc(-c5ccc(C#N)cc5)cn4)c3)sc2C1.O=C(O)C(F)(F)F	-0.64	–	–	–	–	–	–	0.89	-0.96	0.68	0.74	–	–	–	0.57	0.52	0.59	0.68	0.51	0.62	Growth Rate (Fibroblast; 0 h, replicate number 1): -0.59; Growth Rate (U2OS; 24 h, replicate number 2): 0.75; Growth Rate (HEK-293T; 6 h, replicate number 1): 0.98
CN[C@@H](C)C(=O)N[C@H](C(=O)N1CCC[C@H]1C(=O)N[C@@H]1CCCc2ccccc21)C1CCCCC1.Cl	–	–	0.89	0.97	0.89	–	–	–	-0.36	0.63	0.9	0.76	0.75	0.72	–	0.81	–	0.87	–	0.88	Growth Rate (U2OS; 0 h, replicate number 1): 0.24
CC#CC(=O)N1CCN(c2nc(-c3ccc(Oc4ccccc4)cc3)c(C(N)=O)s2)CC1	0.75	0.18	0.22	0.5	0.55	0.92	0.66	0.94	-0.85	0.66	0.74	0.5	0.52	0.32	0.44	0.43	0.61	0.6	0.66	0.64	Growth Rate (Fibroblast; 0 h, replicate number 1): 0.51; Growth Rate (Fibroblast; 6 h, replicate number 1): 0.87; Growth Rate (Fibroblast; 18 h, replicate number 2): 0.4; Growth Rate (U2OS; 0 h, replicate number 1): 0.94; Growth Rate (U2OS; 6 h, replicate number 2): 0.82; Growth Rate (U2OS; 24 h, replicate number 1): 0.69; Growth Rate (U2OS; 24 h, replicate number 2): 0.94; Growth Rate (HEK-293T; 6 h, replicate number 1): 0.41
COc1cc2ncnc(Nc3ccc(F)c(Cl)c3)c2cc1OCCN(C)C[C@H](C)O	0	0.44	-0.12	0.7	0.68	0.35	0.77	0.44	-0.98	0.69	0.49	-0.2	-0.23	-0.21	0	0.61	0.65	0.69	0.65	0.73	Growth Rate (Fibroblast; 6 h, replicate number 1): -0.42; Growth Rate (Fibroblast; 18 h, replicate number 2): -0.05; Growth Rate (U2OS; 0 h, replicate number 2): 0.24; Growth Rate (U2OS; 6 h, replicate number 2): 0.36; Growth Rate (U2OS; 24 h, replicate number 1): 0.92; Growth Rate (U2OS; 24 h, replicate number 2): 0.42; Growth Rate (HEK-293T; 6 h, replicate number 1): 0.36
CN1CCN(c2ccc(/C=C(\C#N)c3ccccc3Br)cc2)CC1.Cl.Cl	0.65	0.09	-0.18	0.94	–	–	–	–	-0.96	0.54	0.47	0.42	0.18	0.05	-0.21	0.24	0.38	0.48	0.46	0.71	Growth Rate (Fibroblast; 0 h, replicate number 1): 0.9; Growth Rate (Fibroblast; 6 h, replicate number 1): 0.32; Growth Rate (Fibroblast; 18 h, replicate number 2): -0.18; Growth Rate (HEK-293T; 6 h, replicate number 1): 0
